Common to all, as to type: functional
The test system of one test is Listeria monocytogenes. In words: Antibacterial activity against Listeria monocytogenes DSM20600 measured after 48 hrs by BacTiter-glo assay.
In the next test the test system is Bacillus subtilis. In words: Antibacterial activity against Bacillus subtilis DSM10 measured after 18 hrs by micro broth dilution assay.
The subject of the next test is Aspergillus flavus. In words: Antifungal activity against Aspergillus flavus ATCC9170 measured after 24 hrs by BacTiter-glo assay.
For test [1], the system named is Escherichia coli. In words: Antibacterial activity against delta tolC deficient Escherichia coli ATCC25922 measured after 18 hrs by micro broth dilution assay. A general note: Broth dilution looks for growth in wells or tubes with falling amounts of substance.
The test system of test [2] is Mycolicibacterium smegmatis. Put plainly: Antibacterial activity against Mycobacterium smegmatis ATCC607 measured after 48 hrs by BacTiter-glo assay.
Test [3] deals with Escherichia coli. In words: Antibacterial activity against Escherichia coli ATCC25922 measured after 18 hrs by micro broth dilution assay.
The next test deals with Staphylococcus aureus. Put plainly: Antibacterial activity against Staphylococcus aureus ATCC25923 measured after 18 hrs by micro broth dilution assay.
A further test concerns Candida albicans. In words: Antifungal activity against Candida albicans FH2173 measured after 48 hrs by BacTiter-glo assay.
The test system of the next test is Caenorhabditis elegans. Put plainly: Antihelminthic activity against Caenorhabditis elegans N2 assessed as reduction in worm motility measured after 2 days by binocular dissecting microscopy. To be noted: N2, 48 h, time 2 day.

The record followed here is ChEMBL document CHEMBL5120818, “Discovery and Biosynthesis of Antimicrobial Phenethylamine Alkaloids from the Marine Flavobacterium Tenacibaculum discolor sv11” (2022).

For `CCCC1=[N+](CCc2ccccc2)C(C)(CCC(=O)c2ccccc2N)C(NCCc2ccccc2)=C1` (centres undefined), the MIC against Listeria monocytogenes was 4 µg/mL; with Bacillus subtilis it was 4 µg/mL; against Aspergillus flavus, 16 µg/mL; in the test on Escherichia coli [1], > 64 µg/mL; in test [2], 8 µg/mL; against Escherichia coli [3], > 64 µg/mL. Further, the values for the MIC with Staphylococcus aureus, in the test on Candida albicans and in the test on Caenorhabditis elegans were 8 µg/mL, 16 µg/mL and 64 µg/mL, respectively.

As to `CCCc1n(CCc2ccccc2)c(C)c(C)[n+]1CCc1ccccc1`, the MIC in the test with Listeria monocytogenes was > 64 µg/mL; with Bacillus subtilis, 16 µg/mL; in the test with Aspergillus flavus, > 64 µg/mL; with Escherichia coli [1] it was > 64 µg/mL; in test [2] it was 8 µg/mL; in the test on Escherichia coli [3], > 64 µg/mL. Also, the MIC against Staphylococcus aureus was 64 µg/mL; in the test on Candida albicans, > 64 µg/mL; in the test on Caenorhabditis elegans it was > 64 µg/mL.

On to `CCCc1n(CCc2ccccc2)c(C)c(CC)[n+]1CCc1ccccc1`, for which the MIC is > 64 µg/mL in the test on Listeria monocytogenes; 32 µg/mL against Bacillus subtilis; > 64 µg/mL against Aspergillus flavus; > 64 µg/mL against Escherichia coli [1]; 8 µg/mL in test [2]; > 64 µg/mL against Escherichia coli [3]. Further, the MIC was 64 µg/mL in the test on Staphylococcus aureus, > 64 µg/mL in the test with Candida albicans and > 64 µg/mL with Caenorhabditis elegans.

`CCCc1c(CC)cc(CC)c[n+]1CCc1ccccc1`: the MIC (against Listeria monocytogenes; against Bacillus subtilis; with Aspergillus flavus; in the test on Escherichia coli [1]; in [2]; in the test with Escherichia coli [3]) was > 64 µg/mL throughout. Moreover, the MIC against Staphylococcus aureus, in the test on Candida albicans and in the test with Caenorhabditis elegans was > 64 µg/mL in each case.

As for `CCCc1cc2n(CCc3ccccc3)cc(-c3ccccc3)cc-2[n+]1CCc1ccccc1`, the MIC against Listeria monocytogenes turned out to be 0.5 µg/mL; with Bacillus subtilis, 1 µg/mL; in the test on Aspergillus flavus, 1 µg/mL; with Escherichia coli [1], 8 µg/mL; in test [2] it was 0.5 µg/mL; with Escherichia coli [3] it was 64 µg/mL. Further, the results for the MIC against Staphylococcus aureus, with Candida albicans and in the test on Caenorhabditis elegans were 0.5 µg/mL, 4 µg/mL and 32 µg/mL, respectively.

On to `CCCc1c(C)cn(CCc2ccccc2)c2cc(CCC)[n+](CCc3ccccc3)c1-2`, for which the MIC against Listeria monocytogenes was 2 µg/mL; against Bacillus subtilis it was 4 µg/mL; against Aspergillus flavus, 8 µg/mL; against Escherichia coli [1], 64 µg/mL; in test [2] it was 4 µg/mL; against Escherichia coli [3], > 64 µg/mL. Moreover, the MIC against Staphylococcus aureus was 4 µg/mL; against Candida albicans it was 8 µg/mL; in the test on Caenorhabditis elegans, > 64 µg/mL.
